Results reported in patent publication US10752626B2, “Iso-citrate dehydrogenase (IDH) inhibitor” (SHANGHAI METON PHARMACEUTICAL CO., LTD, priority 2016, dated 2020).

Legend:
IDH1 R132C = IDH1 R132C (Homo sapiens (Human), UniProt O75874, R132C); test: Biochemical assay for inhibition of mutant IDH1 R132C; conditions: tested in triplet
Text: (§1) The present disclosure provides a biochemical assay method for detecting the IDH inhibition and selectivity of the compounds by detecting IDH enzyme activity directly.
(§2) Wild-type IDH enzyme could convert NADP^+ to NADPH when it catalyzes the α-KG producing reaction. Mutant IDH enzyme could convert NADPH to NADP^+ when it catalyzes the D-2-HG producing reaction. So the activity of wild-type and mutant IDH1/2 could be measured by monitoring NADPH level change: in the reaction catalyzed by wild-type IDH1/2, the newly generated NADPH is utilized instantly by coupled diaphorase-resazurin reaction to generate resorufin which is fluorescent (at Excitation 544 nm, Emission 590 nm) and thus NADPH is monitored indirectly; while in the reaction catalyzed by mutant IDH1/2, NADPH is directly monitored as it is fluorescent (at Excitation 340 nm, Emission 460 nm). By monitoring the change of NADPH level in the reaction, the enzyme activity could be determined rapidly and efficiently, IC50 of a compound could also be assayed.
(§3) The test compounds were prepared into 50 mM stock solutions in DMSO and stored at −20° C. Each test compound stock was further diluted to obtain a 100× stock solution at a concentration of 200 μM, 100 μM, 50 μM, 25 μM, 12.5 jμM, 6.25 μM and 3.125 μM, respectively, for the final use on the day of test.
(§4) Inhibition of Mutant IDHJ (R132H or R132C):
(§5) Solution A was prepared by combining 1 M Tris-HCl pH7.5 (300 μL), 5 M NaCl (450 μL), 1 M MgCl2 (150 μL), 1 M DTT (15 μL), 20 mg/mL BSA (37.5 μL), 20 mM NADPH (20 μL), and 0.5 mM α-KG (40 μL), followed by adding deionized water to a final volume of 15 mL.
(§6) Reaction buffer was prepared by combining 1 M Tris-HCl pH 7.5 (200 μL), 5 M NaCl (300 μL), 1 M MgCl2 (100 μL), 1 M DTT (10 μL) and 20 mg/mL BSA (25 μL), followed by adding deionized water to a final volume of 10 mL.
(§7) Solution B was prepared by combining the reaction buffer (5 mL) and […] IDH1-R132H (5.21 μL) or 107 μM IDH1-R132C (4.67 μL).
(§8) 148 μL Solution A was added into each sample well of a 96-well plate P1, and then 2 μL of the test compound solution at each concentration and 2 μL of DMSO (negative control/blank) were added into individual sample well respectively. 50 μL of Solution B was added into each of the sample wells having test compounds and one sample well having DMSO only, and 50 μL of reaction buffer was added into another sample well having DMSO only, respectively. P1 was put into BioTek Synergy H4 Microplate reader (BioTek Instruments Inc., Winooski, U.S.), and the program was set as follows: 37° C., shake plate 5 seconds, run kinetic mode, total detection time 20 min, detection intervals 40 seconds, detection mode fluorescence (at Excitation 340 nm, Emission 460 nm). The data were exported, the relative enzyme activity and the half-maximal inhibitory concentration (IC50) for the test compound were calculated. Relative enzyme activity was calculated as the absolute value of the slope of the Emission 460 reads of each well plotted against time (which represents the conversion rate of ca-KG to 2-HG through IDH1 modulated utilization of NADPH). The Dose-response curve was drawn and the IC50 was calculated via fitting. The IDH inhibition and selectivity of each test compound can be evaluated according to the effect of the compounds on the IDH enzyme activity.
(§9) The IDH inhibition activity of the compounds were assessed according to Test 5 of the Biological evaluation section. The test for mutant IDH1 R132H/R132C inhibition of each compound was carried out in triplet. For IDH1 R132H, the enzyme activity of exemplary Compounds 16, 21, 22, 23, 24 and 31 is plotted as a function of logarithm of the concentration of the compound in FIGS. 8A-8C, 9A-9C, 10A-10C, 11A-11C, 12A-12C and 13A-13C, respectively. […]

IDH1 R132H = IDH1 R132H (Homo sapiens (Human), UniProt O75874, R132H); test: Biochemical assay for inhibition of mutant IDH1 R132H; conditions: tested in triplet
Sequence of IDH1 R132H (O75874 whole entry R132H): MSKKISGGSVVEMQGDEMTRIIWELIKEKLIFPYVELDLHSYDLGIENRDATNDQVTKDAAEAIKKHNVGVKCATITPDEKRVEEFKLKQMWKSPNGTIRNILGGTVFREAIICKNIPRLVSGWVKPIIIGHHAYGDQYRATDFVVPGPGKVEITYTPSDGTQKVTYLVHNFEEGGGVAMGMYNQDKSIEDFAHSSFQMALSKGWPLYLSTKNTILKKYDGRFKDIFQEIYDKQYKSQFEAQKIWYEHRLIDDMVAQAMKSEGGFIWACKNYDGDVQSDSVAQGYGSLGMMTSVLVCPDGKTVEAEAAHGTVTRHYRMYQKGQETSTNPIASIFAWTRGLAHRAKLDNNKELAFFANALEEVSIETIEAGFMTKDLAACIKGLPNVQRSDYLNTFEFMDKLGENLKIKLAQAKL
Text: as §1, §2, §3, §4, §5, §6, §7, §8, §9

[1] = Metabolic stability in mouse plasma; format: in vitro ADME
Protocol: Blank male/female mouse plasma was provided by 3D BioOptima (Suzhou, China) and was freshly collected prior to use. The acetonitrile was purchased from Honeywell International Inc. (New Jersey, U.S.).
At each set time point (0, 15, 30, 60, 120 min), small aliquots from the plasma samples was transferred (each of 20 μL) into the mirocentrifuge tubes, then was added into 200 μL IS containing acetonitrile for protein precipitation. […] All incubations were performed in duplicate. In vitro compound stability was calculated by using the following equations: […]
where Ct is the area ratio of the sample to the IS at […] post-incubation, and C0 is the area ratio of the sample to the IS at 0 h pre-incubation.
In this study, the metabolic stability of the compounds in mouse plasma was assessed according to the method disclosed in Test 3 of the Biological evaluation section.

Sequence of IDH1 R132C (O75874 whole entry R132C): as the sequence (O75874 whole entry R132H) above, with H132C counted along it

CCN1Cc2c(ccnc2N[C@@H](C)c2ccc(Oc3ccccc3)c(F)c2)C1=O [Compound 23, (S)-2-ethyl-4-((1-(3-fluoro-4-phenoxyphenyl)ethyl)amino)-2,3-dihydro-1H-pyrrolo[3,4-c]pyridin-1-one]
IC50 (IDH1 R132C): < 1.5 µM | IC50 (IDH1 R132H): < 1 µM

CCN1Cc2c(ccnc2N[C@@H](C)c2ccc(Oc3ccc(C)cc3)cc2)C1=O [Compound 16, (S)-2-ethyl-4-(1-(4-(p-tolyloxy)phenyl)ethylamino)-2,3-dihydro-1H-pyrrolo [3,4-c]pyridin-1-one]
period over which compound remains stable in mouse plasma [1]: at least 2 hrs | K ([1]; #2): 0.000737 min⁻¹ | K ([1]; Mean): 0.000737 min⁻¹ | half-life at 2 μM ([1]; both sexes, #2): 15.7 h | % remaining #1 ([1]; incubation 0 min): 100% | % remaining #2 ([1]; incubation 0 min): 100% | Ln (% remaining) #1 ([1]; incubation 0 min): 4.61 | Ln (% remaining) #2 ([1]; incubation 0 min): 4.61 | Mean Ln(% remaining) ([1]; incubation 0 min): 4.61 | % remaining #1 ([1]; incubation 15 min): 99.8% | % remaining #2 ([1]; incubation 15 min): 106% | Ln (% remaining) #1 ([1]; incubation 15 min): 4.60 | Ln (% remaining) #2 ([1]; incubation 15 min): 4.66 | Mean Ln(% remaining) ([1]; incubation 15 min): 4.63 | % remaining #1 ([1]; incubation 30 min): 95.0% | % remaining #2 ([1]; incubation 30 min): 102% | Ln (% remaining) #1 ([1]; incubation 30 min): 4.55 | Ln (% remaining) #2 ([1]; incubation 30 min): 4.62 | Mean Ln(% remaining) ([1]; incubation 30 min): 4.59 | % remaining #1 ([1]; incubation 60 min): 98.4% | % remaining #2 ([1]; incubation 60 min): 98.9% | Ln (% remaining) #1 ([1]; incubation 60 min): 4.59 | Ln (% remaining) #2 ([1]; incubation 60 min): 4.59 | Mean Ln(% remaining) ([1]; incubation 60 min): 4.59 | % remaining #1 ([1]; incubation 120 min): 105% | % remaining #2 ([1]; incubation 120 min): 94.1% | Ln (% remaining) #1 ([1]; incubation 120 min): 4.65 | Ln (% remaining) #2 ([1]; incubation 120 min): 4.54 | Mean Ln(% remaining) ([1]; incubation 120 min): 4.60 | average percentage remaining ([1]; within the 2 hrs period): above 98.5% | IC50 (IDH1 R132C): < 1.5 µM | IC50 (IDH1 R132H): < 1 µM
